GI50 and TGI data for 15 compounds are collected here from PubChem BioAssay (NCI).

Assay in all cases: NCI-60 cell line screen, 48 h
In assay [1] the test system is IGROV1 ovarian.
Assay [2] has as its system RPMI-8226 leukemia.
The subject of assay [3] is HL-60(TB) leukemia.
In assay [4] the test system is NCI-H23 lung.
Assay [5] relates to ACHN renal.
Assay [6] relates to SK-MEL-2 melanoma.
The subject of assay [7] is SN12C renal.
Assay [8] has as its system SR leukemia.
Assay [9] relates to PC-3 prostate.

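Each compound was tested at five concentrations against cells in 96-well plates for 48 hours. GI50 marks 50% less growth. Definition used: TGI = concentration required for complete inhibition of growth.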

Consider `C1C[OH+]CC[OH+]CCNCC[OH+]CC[OH+]CCN1.N.[Cl-].[Pt+4]`, for which the GI50 in [1] is 4.55 µM; in assay [2], 10.2 µM; in assay [3] it was 1.61 µM; in [4], 1.8 µM; in [5], 4.33 µM; in assay [6], 19.9 µM. Also, the GI50 in assay [7] was 18.7 µM. For the same compound, the TGI is 34.7 µM in [1]; 92.7 µM in assay [2]; more than 100 µM in [3]; 12 µM in assay [4]; 44 µM in assay [5]; 53 µM in [6]. For the same compound, the TGI in assay [7] is more than 100 µM.
`N#C/C(=C\c1ccc(O)c(O)c1)C(N)=S`: the TGI in [8] was more than 100 µM; in assay [1] it was more than 100 µM; in assay [2], more than 100 µM; in assay [3], more than 20 µM; in [4], more than 100 µM; in assay [5], more than 100 µM. Further, the TGI in assay [6] and in assay [7] was more than 100 µM in each case.
Regarding `COc1ccc2nc(-c3cccs3)cc(C(O)CN3CCSCC3)c2c1` (stereo not given), the TGI is more than 100 µM in assay [1]; 43 µM in assay [2]; 5.8 µM in assay [3]; 55.4 µM in assay [4]; 45.9 µM in assay [5]; 36 µM in assay [6]. In addition, the TGI in assay [7] is 87.7 µM.
As to `C#CCOCn1cnc2c(Cl)ncnc21`, the TGI in [8], in assay [1], in assay [2], in assay [4], in assay [5] and in assay [6] was more than 100 µM in each case. The compound further came in with a TGI in assay [7] of more than 100 µM.
As to `CCCCCCCCCCCC(=O)OCC1OC(n2cc(F)c(=O)[nH]c2=O)C(NC(=O)OCc2ccccc2)C(OC(=O)CCCCCCCCCCC)C1O` (stereo not given), the TGI in assay [8], in [1], in [2], in assay [4], in [5] and in [6] was more than 100 µM each time. The same compound gave a TGI in assay [7] of more than 100 µM.
With `NNC(=O)/C(=C/c1ccc(Cl)cc1Cl)NC(=O)c1ccccc1`, the TGI in [8], in assay [1], in [2], in assay [3], in [4] and in [5] was more than 100 µM in each case. For the same compound, the TGI in [6] and in assay [7] was more than 100 µM in each case.
`O=c1/c(=C/c2ccccc2F)sc2nc3ccccc3n12`: the TGI in assay [8], in assay [1], in assay [2], in assay [3], in [4] and in assay [5] was more than 100 µM throughout. Besides, the TGI in assay [6] and in assay [7] was more than 100 µM in each case.
For `O=[N+]([O-])C1C2C=CC(C2)[C@H]1c1ccco1` (stereo not given in full), the TGI in assay [8] was more than 100 µM; in [1], more than 100 µM; in assay [3], more than 100 µM; in assay [4], 2.36 µM; in assay [5], more than 100 µM; in assay [6] it was more than 100 µM. The compound further returned a TGI in [7] of more than 100 µM.
`COC(C(=O)[O][Ge]([CH3])([CH3])[CH3])c1ccccc1` (stereo not given): the GI50 in assay [8], in assay [1], in assay [2], in [4], in assay [5] and in [7] was more than 100 µM each time. The TGI in assay [8], in assay [1], in assay [2], in [4], in assay [5] and in [7] was more than 100 µM each time.
Regarding `CC1C=C(OC(=O)c2ccccc2)C(=O)C(n2cc(F)c(=O)[nH]c2=O)O1` (stereo not given), the TGI in [1], in assay [2], in [3], in [4], in assay [5] and in assay [6] was more than 100 µM throughout. The TGI in assay [7] is more than 100 µM.
Turning to `CCN(CC)c1ccc(C(=O)c2ccccc2C(=O)O)c(O)c1`, the TGI in [1], in [2], in assay [3], in [4], in [5] and in [6] was more than 100 µM throughout. The compound also registered a TGI in assay [7] of more than 100 µM.
Consider `C/C(=N\NS(=O)(=O)c1ccccc1)c1ccc(Cl)c(Cl)c1`, for which the TGI in assay [8], in [1], in assay [2], in assay [3], in assay [4] and in [5] was more than 100 µM each time. The TGI in assay [6] and in assay [7] was more than 100 µM throughout.
On to `Cc1c(C(=O)C/C(=N\O)C(=O)Nc2cc(Cl)c(Cl)cc2Cl)[n+](=O)c2ccccc2n1[O-]`, for which the TGI in assay [8] is 84.4 µM; in assay [1] it was 20.9 µM; in [2], 38.4 µM; in assay [3], more than 100 µM; in [4], 65.6 µM; in assay [5], 67.5 µM. Moreover, the TGI in [6] turned out to be 34.8 µM; in assay [7] it was 18.9 µM.
Regarding `CCCNC1=C(C(=O)OCC)C(=O)CO1`, the TGI in assay [8], in [1], in assay [2], in assay [3], in [4] and in assay [5] was more than 100 µM each time. Further, the TGI in [6] and in [7] was more than 100 µM throughout.
`COc1ccc(-c2n/c(=C\c3c(O)[nH]c4ccc(OC)cc34)cc3c2=Nc2ccccc2-3)cc1`: the GI50 is 12 µM in [1]; 3.21 µM in [2]; 10.3 µM in [3]; 1.89 µM in [4]; 26.7 µM in [5]; 4 µM in assay [7]. Further, the GI50 in assay [9] is 22.1 µM. Moreover, the TGI in [1] was more than 100 µM; in assay [2], 37.3 µM; in [3], 32.5 µM; in [4], 3.97 µM; in [5] it was more than 100 µM; in assay [7], more than 100 µM. The TGI in assay [9] was more than 100 µM.
